From patent publication US20070031511A1, “Method of treatment” (priority 2003, published 2007)
Entries after “also recorded” stand apart in the source; their conditions may differ.

Tests used:
[1] = molecular target: T1, CCK-2 receptor (Homo sapiens, UniProt P32239); assay: Gamide-stimulated inositol phosphate production in COS-7 cells transfected with the CCK-2 receptor; assay type: cell-based; set-up: COS-7 cells transiently transfected with CCK-2 receptor cDNA; expressed in transfected cells; host or cells: COS-7; settings: 1 μM DFO, 10 nM Gamide
T1 sequence (P32239 1-447): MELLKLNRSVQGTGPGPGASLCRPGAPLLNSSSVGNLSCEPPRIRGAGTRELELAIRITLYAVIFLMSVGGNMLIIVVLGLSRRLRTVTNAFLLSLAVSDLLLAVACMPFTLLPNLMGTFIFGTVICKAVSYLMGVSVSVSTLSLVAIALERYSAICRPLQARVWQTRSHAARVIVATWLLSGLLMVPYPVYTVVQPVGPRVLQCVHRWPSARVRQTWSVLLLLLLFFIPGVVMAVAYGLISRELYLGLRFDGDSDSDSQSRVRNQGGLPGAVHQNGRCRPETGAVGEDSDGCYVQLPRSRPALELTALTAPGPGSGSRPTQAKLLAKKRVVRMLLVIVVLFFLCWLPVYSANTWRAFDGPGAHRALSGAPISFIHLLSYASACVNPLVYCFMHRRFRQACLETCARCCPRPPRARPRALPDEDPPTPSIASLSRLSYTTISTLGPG
Protocol: Intracellular inositol phosphate production was determined as described previously (Qian et al, 1993). IMGE-5 cells (10^5 cells/ml) were plated in 24-multiwell culture plates in DMEM supplemented with 10% FBS, 200 IU/ml penicillin and 200 μg/ml streptomycin. 24 h later, cells were incubated with DMEM supplemented with antibiotics and Myo-[2-^3H]inositol (2.5 μCi/well) and shifted to 39° C. for 16 h. Cells were then washed with pre-warmed DMEM and incubated (20-30 minutes, 37° C.) with DMEM supplemented with 20 mM LiCl. Loaded cells were then washed in 1 ml of IP buffer (135 mM NaCl, 20 mM N-(2-hydroxyethyl)piperazine-N′-(2-ethanesulfonic acid), 2 mM CaCl2, 1.2 mM MgSO4, 1 mM ethylene glycol-bis(2-aminoethylether)-N,N,N′,N′-tetraacetic acid, 10 mM LiCl, and 0.5% bovine serum albumin, pH 7.45) and incubated with or without agonist in a final volume of 0.5 ml of IP buffer. After 1-h incubation at 37° C., the reaction was stopped by removing the incubation medium and adding 1 ml of a mixture of ethanol/HCl (2000:1; v/v). One ml of each aliquot was applied to a column containing 1.6 ml of a 1:2 (v/v) Dowex AG-1-X8 anion exchange resin in distilled water. The columns were washed with 4 ml of distilled water, followed by 4 ml of 40 mM HCOONH4, and inositol phosphates were eluted with 4 ml of 1 M HCOONH4. The radioactivity of each eluate was counted after addition of Complete phase combining system solution (Amersham, UK). For the positive control, IMGE-5 cells were incubated with a combination of 30 mM NaF and 10 μM AlCl3 under the same experimental conditions.
Gamide-stimulated inositol phosphate production was measured in COS-7 cells transfected with the CCK-2 receptor. […] Bismuth ions alone had no effect on inositol phosphate production in CCK-2 receptor-transfected COS-7 cells and HT29 cells, even at the highest concentration tested.
We then investigated the role of the individual glutamates in biological activity. The effects of the mutants GamideE7A and GamideE8,9A on inositol phosphate production in COS-7 cells transiently transfected with the CCK-2 receptor were compared.

[2] = test system: IMGE-5 cells; assay: Wound healing / cell migration assay; assay type: cell-based, mice
Protocol: The IMGE-5 cell line was established from the gastric mucosa of mice transgenic for a temperature-sensitive mutant of the SV40 large T antigen (Hollande et al, 2001). IMGE-5 cells were generally grown at 33° C. in DMEM containing 1 unit/ml γ-interferon, 10% FBS, 100 U/ml penicillin, and 100 μg/ml streptomycin (permissive conditions). For all experiments, cells were transferred to 39° C. in the same medium without […] (non-permissive conditions), where they display differentiated characteristics such as expression of functional adherens and tight junctions. All experiments have been performed on cells between passages 20 and 35.
In order to assess the effects of different stimuli on cell migration, wound healing experiments were performed as detailed elsewhere (Hollande et al, 1997). In brief, IMGE-5 cells were grown in 12-well plates in DMEM at 33° C. until they reached 80% confluence, then shifted to 39° C. and starved of serum for 24 h. The confluent monolayer was wounded using a 20 μl-pipette tip, and cells were then washed 3 times with phosphate-buffered saline (PBS: 2.7 mM KCl, 1.5 MM KH2PO4, 142 mM NaCl, and 10 mM Na2HPO4, pH 6.95) and treated with or without different compounds in DMEM with antibiotics. Morphology and migration of cells were observed and photographed immediately, and after treatment for 17 and 24 h. Wound width was measured at six different positions on the 24 h photographs, and averages calculated.

[3] = test system: rectal mucosa; assay: Proliferation in the rectal mucosa of rectally defunctioned rats (metaphase-arrested cells); assay type: in vivo; settings: DFO 400 mg/kg intraperitoneally thrice weekly, 4 weeks; Ggly 2.5 nmol/kg/hr
Protocol: DFO (400 mg/kg) was administered intraperitoneally thrice weekly, and bismuth ions were administered as colloidal bismuth subcitrate (135 mg/kg/12 hours) by oral gavage 5 days per week. After 4 weeks, the rats were injected with vincristine to arrest cycling cells in metaphase, and sacrificed 3 hrs later. Crypt heights in the rectal mucosa, and the number of metaphase arrested cells per crypt, were then determined microscopically.

[4] = test system: hepatoma cell lines; settings: Kicic et al, 2001; cited from earlier work
[5] = test system: human hepatomas; settings: Hann et al, 1992; cited from earlier work
[6] = test system: IMGE-5 cells; assay: IMGE-5 cell proliferation, MTT assay; assay type: cell-based, mice; settings: DFO 1 μM
[7] = test system: IMGE-5 cells; assay: IMGE-5 cell proliferation, [3H]-thymidine incorporation; assay type: cell-based, mice
Protocol: In some cases cell proliferation was also measured by [^3H]-thymidine incorporation as described previously (Oiry et al., 2000). Briefly, IMGE-5 cells (10^5/well) were seeded in 24-well plates in medium containing 10% FBS and 1 unit/ml γ-interferon. On the next day cells were serum starved and shifted to 39° C. for 24 hr. Cells were then incubated with or without various compounds at 39° C. for 17 h in medium supplemented with 0.2% bovine serum albumin only. Cells were incubated with 0.5 μCi of [^3H] thymidine in the same medium at 39° C. for 4 h, washed twice with PBS (2.7 mM KCl, 142 mM NaCl, 1.5 mM KH2PO4, 10 mM Na2HPO4, pH 6.95) containing 0.2% bovine serum albumin and incubated at 4° C. for 30 min with 5% trichloroacetic acid. Finally cells were washed with 95% ethanol to remove unincorporated [^3H] thymidine, and lysed with 1 M NaOH. Lysates were transferred to counting vials and neutralized with 1M HCl. The radioactivity of each lysate was counted in a β-counter after the addition of 10 ml of Pico-fluor 40 solution (Packard, Meriden, Conn.).
In some experiments IMGE-5 cells were seeded in a 96-well plate at a density of 3-5×10^3 cells/well in.DMEM containing 10% FBS, and cultured at 33° C.. On the following day, the cells were serum-starved at 33° C. for 24 h. […] The cells were cultured at 39° C. for 24 h, and then harvested using a NUNC cell harvester. The amount of ^3H-thymidine incorporated through DNA synthesis was detected with a β-counter (Packard, Meriden, Conn.). […]

[8] = 1H NMR titration of Ggly fragments with ferric citrate; assay type: binding; settings: pH 5.3, 278 K, read-out: Apparent Kd for ferric ions from shift of the Glu10 amide resonance
Protocol: The peptides LE5AYG, LE5A, E5AY and E5A (approximately 2 mM) were dissolved in H2O with 5 or 10% ^2H2O. […] Sequence-specific ^1H NMR resonance assignments were made from two-dimensional nuclear Overhauser enhancement spectroscopy (NOESY) and total correlation spectroscopy (TOCSY).
The apparent dissociation constants, Kd, for the complexes between ferric ions and the nonapeptide LE5AYG or the octapeptide LE5AY were obtained from the change in chemical shift of the Glu10 amide proton on addition of ferric citrate using the program Sigmaplot (Jandel Scientific, San Rafael, Calif.), by linear regression of the data to the equation 1/δ=Kd/Δ·1/[Fe^3+]+1/Δ where δ is the change in chemical shift, Δ is the maximum change in chemical shift, and [Fe^3+] is the concentration of added ferric ions. Measurement of Inositol Phosphate Production
In order to define the ligands involved in ferric ion binding, we next investigated the effect of ferric ions on the NMR spectra of the peptides. Ferric ion titration experiments were carried out by addition of 20, 50, or 200 mM ferric citrate solution to the peptides. The pH was maintained at 5.3 by addition of small amounts of NaO^2H or ^2HCl. Concentration, pH, temperature and use of ferrric citrate were in keeping with the conditions that were employed in earlier examples in order to prevent precipitation of peptide or ferric hydroxide. […]

Effect on Gamide-stimulated inositol phosphate production [1]	Kd [8] [mM]	Compound	Effect on Ggly-stimulated IMGE-5 cell migration ([2]; DFO 1 μM)	Effect on stimulation of proliferation of the rectal mucosa by Ggly [3]	Inhibition of proliferation of hepatoma cell lines in vitro [4]	Inhibition of human hepatomas [5]	Effect on Ggly-stimulated IMGE-5 cell proliferation ([6]; MTT and thymidine assays)	Reduction of Gamide-stimulated IMGE-5 cell proliferation ([6]; MTT, 72 h) [%]	Stimulation of cell migration compared with Ggly ([2]; 100 nM peptide, 24 h)	Effect of DFO on peptide-stimulated migration ([2]; 100 nM peptide, DFO in the medium)	S (%), maximum % stimulation ([7]; IMGE cells, thymidine uptake, best fit at saturating concentration) [%]	Stimulation of proliferation of IMGE cells ([7]; incorporation of [3H]-thymidine)	Effect of DFO on proliferation induced by the peptide ([7]; peptide 100 nM, plus or minus 1 μM DFO, [3H]-thymidine incorporation)
had no effect		CC(=O)N(O)CCCCCNC(=O)CCC(=O)N(O)CCCCCNC(=O)CCC(=O)N(O)CCCCCN [DFO, desferrioxamine]	completely blocked	significantly reduced	effective inhibitors	effective inhibitor	completely blocked	60					
	7	LEEEEEAYG [LE5AYG]							more effective than Ggly	reversed by inclusion of DFO	45.8	significantly stimulated proliferation	completely blocked; also recorded: significantly blocked by DFO
